The nature of data set [1]: Particle size distribution (volume, laser-light diffraction). In kind it is physicochemical. The text has this:
The particle size of the particles of all aspects disclosed herein can be determined by a particle size analyzer instrument and the measurement is expressed as the mean diameter based on a volume distribution (volume). A suitable particle size analyzer instrument is one which employs the analytical technique of […]. A suitable laser-light diffraction particle size analyzer instrument is the Mastersizer, such as the Mastersizer 3000, available from Malvern Instruments, United Kingdom.

Data set [2] can be described thus: Specific surface area by BET isotherm. Format: physicochemical. On the procedure:
As used herein, the “specific surface area” (SSA) is the total surface area of the particle per unit of compound mass as measured by the Brunauer-Emmett-Teller (“BET”) isotherm by the following method: a known mass between 200 and 300 mg of the analyte is added to a 30 mL sample tube. The loaded tube is then mounted to a Porous Materials Inc. SORPTOMETER®, model BET-202A. The automated test is then carried out using the BETWIN® software package and the surface area of each sample is subsequently calculated. Such an increase in SSA results in significant increases in dissolution rates in relevant media as compared to therapeutic particles produced by conventional means. The “therapeutic particles” can include both agglomerated therapeutic particles and non-agglomerated therapeutic particles; since the SSA is determined on a per gram basis it takes into account both agglomerated and non-agglomerated therapeutic particles in the composition. The BET specific surface area test procedure is a compendial method included in both the United States Pharmaceopeia and the European Pharmaceopeia.

Molecules are shown by their SMILES.

In data set [1], `CCC(=O)O[C@]1(C(=O)SCF)[C@H](C)C[C@H]2[C@@H]3C[C@H](F)C4=CC(=O)C=C[C@]4(C)[C@@]3(F)[C@@H](O)C[C@@]21C` [Raw fluticasone, fluticasone propionate] returned a Dv10 of 10.9 μm, a Dv50 of 39.0 μm and a Dv90 of 74.4 μm. The “SSA (specific surface area)” value in data set [2] was found to be 4.11 m^2/g.

In data set [1], `COC(=O)c1ccc2c(c1)NC(=O)/C2=C(\Nc1ccc(N(C)C(=O)CN2CCN(C)CC2)cc1)c1ccccc1` [Raw nintedanib, nintedanib] registered a Dv10 of 10.5 μm, a Dv50 of 36.8 μm and a Dv90 of 70.2 μm. Besides, the “SSA (specific surface area)” value in data set [2] was 4.11 m^2/g.
